This note sets out measurements from PMC8477192, “An ionic lock and a hydrophobic zipper mediate the coupling between an insect pheromone receptor BmOR3 and downstream effectors” (The Journal of Biological Chemistry, 2021).

The test system of one assay is BmOR3 and BmOrco. The assay can be described thus: CalfluxVTN Ca2+ assay (BRET-based calcium sensor). In kind it is cell-based, Bombyx mori. As for the experimental part: HEK293 cells were cotransfected with plasmids encoding WT BmOR3 and BmOrco or their mutants, or AT1R together with CalfluxVTN probe. 24 h after transfection, cells were redistributed into 96-well flat-bottomed microplates. After another 24 h, cells were incubated with conventional buffer with Ca^2+ (135 mM NaCl, 5 mM KCl, 1 mM CaCl2, 5 mM D-glucose, 10 mM Hepes; pH = 7.4) or with Ca^2+-free buffer (135 mM NaCl, 5 mM KCl, 1 mM EGTA, 5 mM D-glucose, 10 mM Hepes; pH = 7.4), and stimulated with different concentrations of Bombykal (or AngII). The BRET ratio between Venus and Nluc was measured before (baseline) and after the addition of the Nluc substrate furimazine (5 μM) using a Mithras LB 940 multimode reader (Berthold Technologies). The BRET signal was calculated as ratio of emission of Venus (530 nm) to Nluc (460 nm). The baseline value was subtracted from the bombykal-stimulated BRET signal to obtain the ΔBRET value.
On the technique in general: Bioluminescence resonance energy transfer reports proximity on the nanometre scale.

Assay [1] has as its target T1, BmOR3 (Bombyx mori, UniProt Q5FBE0). Nature of the assay: GloSensor cAMP assay. It is filed as cell-based. The conditions noted are these: BmOR3-transfected HEK293 cells, not in mock cells; 1 μM forskolin. The method, then: The GloSensor cAMP assay was performed as previously described ([40], [55], [56]). Briefly, HEK293 cells were transfected with the BmOR3 plasmid or empty vector pcDNA3.1 together with the GloSensor plasmid. 24 h after transfection, cells were distributed into 96-well microplates at a density of 50,000 cells/well. After another 24 h, the cells were incubated with DMEM containing 2% (v/v) GloSensor cAMP reagent for 2 h at 37 °C. Cells were then treated with varying concentrations of bombykal followed by the stimulation of 1 μM forskolin. The luminescence intensity was measured using an EnVision multi-label microplate detector (PerkinElmer).
A general note: Changes in cAMP serve as a functional read-out for many G protein-coupled receptors.

Assay [2] concerns the target T1, BmOR3. The assay can be described thus: Arrestin-kinase BRET assay. It is filed as cell-based. Conditions: HEK293 cells transfected with BmOR3, BmArr-Rluc and YFP-tagged kinases; 1 μM, 10 min. The method, then: Twenty-four hours after transfection, cells were distributed into a 96-well microplate. After another 24 h, the cells were stimulated with 1 μM bombykal (for BmOR3-transfected cells) or 1 μM AngII for 10 min (for AT1R-transfected cells). BRET between RLuc and YFP was measured using a Mithras LB 940 multimode reader after the addition of the RLuc substrate coelenterazine h (5 μM). The BRET signal was calculated as the ratio of emission of YFP (530 nm) to RLuc (485 nm).

For assay [3], the target named is T1, BmOR3. Nature of the assay: G protein dissociation BRET assay (TRUPATH probes). It is filed as cell-based. The method, then:
The Gi, Gq, Go, Gs, and Gz dissociation BRET probes were from the TRUPATH kit, which was a gift from Bryan Roth (Addgene kit #1000000163 ([31])). HEK293 cells were cotransfected with BmOR3 along with specific G protein BRET probes. After 24 h, the cells were reseeded in 96-well microplates and incubated for another 24 h. The cells were washed twice with Hank's balanced salt solution and stimulated with bombykal at different concentrations for 2 min. The light emission of Rluc8 (400 nm) and GFP10 (510 nm) was measured after the addition of the substrate coelenterazine 400a (5 μM) using a Mithras LB 940 multimode reader (Berthold Technologies). The BRET signal was calculated as the ratio of light emission at 510/400 nm.

Assay [4] addresses T1, BmOR3. Nature of the assay: G protein recruitment BRET assay (Gi-Rluc to YFP-BmOR3). The conditions noted are these: HEK293 cells, 2 min stimulation. It is filed as cell-based. The method, then: Gi1-Rluc, Gi2-Rluc, and Gi3-Rluc plasmids were constructed according to previous report ([30]). HEK293 cells were transiently cotransfected with N-terminal YFP-tagged BmOR3 together with Gi-Rluc plasmids. Twenty-four hours after transfection, cells were distributed into a 96-well microplate. After another 24 h, the cells were stimulated with an increasing amount of bombykal for 2 min. The light emission of Rluc (485 nm) and YFP (530 nm) was measured after the addition of the Rluc substrate coelenterazine h (5 μM) using a Mithras LB 940 multimode reader (Berthold Technologies). The BRET signal was calculated as the ratio of emission of YFP to Rluc. The net BERT value was calculated by subtracting the BRET signal obtained in the cells transfected with Rluc-Gi plasmids only.

What is called EC50 is the midpoint of the concentration-response curve.

T1 sequence (Q5FBE0 entry or part of it): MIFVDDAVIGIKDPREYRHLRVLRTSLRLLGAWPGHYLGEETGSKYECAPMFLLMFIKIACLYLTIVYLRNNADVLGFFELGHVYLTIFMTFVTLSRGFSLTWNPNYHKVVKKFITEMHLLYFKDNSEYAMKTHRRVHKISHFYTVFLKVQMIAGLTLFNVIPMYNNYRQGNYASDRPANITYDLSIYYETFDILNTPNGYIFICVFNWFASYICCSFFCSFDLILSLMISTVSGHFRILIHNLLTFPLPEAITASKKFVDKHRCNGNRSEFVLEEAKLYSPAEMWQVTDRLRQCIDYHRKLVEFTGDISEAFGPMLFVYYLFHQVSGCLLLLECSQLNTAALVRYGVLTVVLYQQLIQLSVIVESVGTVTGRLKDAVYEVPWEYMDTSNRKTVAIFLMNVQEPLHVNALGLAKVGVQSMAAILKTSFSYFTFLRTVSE

`CCC/C=C\C=C\CCCCCCCCC=O` [bombykal]: in the assay with BmOR3 and BmOrco (1 μM, Ca2+-free buffer versus Ca-containing buffer), the “Ca2+ signal through BmOR3–BmOrco in the Ca2+-free incubating buffer” value is given as “completely abolished”. For the same molecule, the “Ca2+ response through BmOR3/BmOrco relative to that induced by angiotensin II through activating AT1R” value in the assay with BmOR3 and BmOrco (1 μM, CalfluxVTN-expressing HEK293 cells, receptors expressed at similar levels) was “approximately 70%”. In the assay with BmOR3 and BmOrco (HEK293 cells coexpressing BmOR3 and BmOrco, not with BmOR3 or BmOrco alone), the “calcium influx in response to stimulation” value is given as “elicited robust calcium influx”. Besides, the “forskolin-induced cAMP” value on BmOR3 [1] is “concentration-dependent decrease”. In addition, the “association of β-arrestin with ERK, SRC, and AKT” value on BmOR3 [2] was “increased association”. Besides, at BmOR3 [3] (HEK293 cells transfected with BmOR3, Go probes), the Go activation result is on record as “did not induce”. For the same molecule, on BmOR3 [3] (HEK293 cells transfected with BmOR3, Gq probes), the Gq activation entry was “did not induce”. Also, the Gs activation entry at BmOR3 [3] (HEK293 cells transfected with BmOR3, Gs probes) was “did not induce”. In addition, at BmOR3 [3] (HEK293 cells transfected with BmOR3, Gz probes), the Gz activation entry is “did not induce”. Further, the EC50 on BmOR3 [3] (HEK293 cells, Gi BRET probes, 2 min stimulation, read-out: EC50 of Gi activation through BmOR3 (decrease of the BRET signal)) stood at 16.4 ± 5.04 nM; at BmOR3 [4] (Gi1, read-out: EC50 of coupling of Rluc-tagged Gi1 to YFP-fused BmOR3), 11.7 ± 1.19 nM; on BmOR3 [4] (Gi2, read-out: EC50 of coupling of Rluc-tagged Gi2 to YFP-fused BmOR3), 22 ± 3.22 nM; on BmOR3 [4] (Gi3, read-out: EC50 of coupling of Rluc-tagged Gi3 to YFP-fused BmOR3), 10.6 ± 2.06 nM.
